Test results reported in patent publication EP4603105A1, “PHARMACEUTICAL COMPOSITION CONTAINING CYCLIC COMPOUND HAVING SELECTIVE KRAS INHIBITORY EFFECT AGAINST HRAS AND NRAS” (CHUGAI SEIYAKU KABUSHIKI KAISHA, priority 2022, dated 2024).
*1 amine or outer side, *2 acyl side, *3 side chain or, on linkers, in order; H or OH if unused. Where a SMILES comes first, the peptide text is derived from it. Bridges are numbered along the chain shown (N, C = ends). [ ]: non-standard residue; d: D form. The star is where a group is joined. hPhe(3-Cl-4-CF3) = N[C@@H](CCc1ccc(C(F)(F)F)c(Cl)c1)C(=O)O; X12 = C=CCN([C@@H](Cc1ccc(C(F)(F)F)cc1)C(=O)[*:2])[*:1]; NPrPhe(4-CF3) = CCCN[C@@H](Cc1ccc(C(F)(F)F)cc1)C(=O)O; NEtPhe(4-F) = CCN[C@@H](Cc1ccc(F)cc1)C(=O)O; NMeGly(cPent) = CN[C@H](C(=O)O)C1CCCC1; NMeNva(3-Et) = CCC(CC)[C@H](NC)C(=O)O; NMeD = CN[C@@H](CC(=O)O)C(=O)O; NMeL = CN[C@@H](CC(C)C)C(=O)O; NMeNva = CCC[C@H](NC)C(=O)O; Morpholide = C1CN(*)CCO1; NMeA = CN[C@@H](C)C(=O)O; Ac5c = NC1(C(=O)O)CCCC1; Aze = O=C(O)[C@@H]1CCN1; Ac4c = NC1(C(=O)O)CCC1; Sar = CNCC(=O)O

What was measured:
HRAS wild-type protein = HRAS wild-type protein (Homo sapiens, UniProt P01112); assay: Binding to HRAS by surface plasmon resonance (SPR), KD and KD ratio to KRAS
In short: (§1)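 Single-cycle kinetics on GDP-loaded biotin-Avi RAS captured to ~100–300 RU; 75 s ascending injections, 100 µL/min, 30°C. HBS pH 7.4 + 10 mM MgCl2/10 µM GDP/4% DMSO. 1:1 fit, KD.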

[1] = tested on: human lung cancer strain NCI-H441; type: cell-based
In short: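 Proliferation was scored by […] measured after the reagent was added to cultures kept at 37°C in 5% carbon dioxide.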

[2] = target: GDP-bound NRAS wild-type protein (Homo sapiens, UniProt P01111); assay: Binding to NRAS by surface plasmon resonance (SPR), KD and KD ratio to KRAS
In short: as §1

[3] = ratio of the KD value with respect to HRAS wild-type protein to the KD value with respect to KRAS
[4] = ratio of the KD value with respect to GDP-bound NRAS wild-type protein to the KD value with respect to KRAS
[5] = ratio of KD for HRAS wild-type protein to KD for KRAS
[6] = ratio of KD for GDP-bound NRAS wild-type protein to KD for KRAS
[7] = ratio of KD value for HRAS wild-type protein to KD value for KRAS (SPR)
[8] = ratio of KD value for GDP-bound NRAS wild-type protein to KD value for KRAS (SPR)

Sequence of HRAS wild-type protein (P01112 whole entry): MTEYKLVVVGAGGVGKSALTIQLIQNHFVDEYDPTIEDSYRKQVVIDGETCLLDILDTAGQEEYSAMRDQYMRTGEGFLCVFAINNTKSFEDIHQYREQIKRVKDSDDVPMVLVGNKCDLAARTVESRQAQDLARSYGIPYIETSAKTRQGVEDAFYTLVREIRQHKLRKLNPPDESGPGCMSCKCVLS
Sequence of GDP-bound NRAS wild-type protein (P01111 whole entry): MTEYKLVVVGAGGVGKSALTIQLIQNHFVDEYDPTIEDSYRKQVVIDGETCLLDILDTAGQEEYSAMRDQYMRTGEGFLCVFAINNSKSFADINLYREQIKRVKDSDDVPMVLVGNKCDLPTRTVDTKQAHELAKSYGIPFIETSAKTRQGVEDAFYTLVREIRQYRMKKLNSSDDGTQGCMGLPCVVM

SMILES	IC50 [1] [nM]	HRAS /KRAS (HRAS wild-type protein; [3])	NRAS /KRAS [2, 4]	HRAS /KRAS (HRAS wild-type protein; [5])	NRAS /KRAS [2, 6]	HRAS /KRAS (HRAS wild-type protein; [7])	NRAS /KRAS [2, 8]
CC[C@H](C)[C@@H]1NC(=O)[C@H](CC(C)C)N(C)C(=O)C[C@@H](C(=O)N(C)C)N(CCC2CCCC2)C(=O)[C@H](C2CCCC2)N(C)C(=O)C2(CCC2)NC(=O)[C@@H]2CC(F)(F)CN2C(=O)[C@H](CCc2ccc(C(F)(F)F)c(Cl)c2)NC(=O)CN(C)C(=O)[C@H](Cc2ccc(F)cc2)N2CCCCC[C@@H](C2=O)N(C)C(=O)CN(C)C1=O [PP0977]	1120	–	–	A (a compound having 10 or more and less than 20 is denoted as A)	B (a compound having 3 or more and less than 10 is denoted as B)	–	–
CCC[C@H]1C(=O)N[C@@H]([C@@H](C)CC)C(=O)N(C)CC(=O)N(C)[C@H]2C/C=C\CCN(C2=O)[C@@H](Cc2ccc(C(F)(F)F)cc2)C(=O)N(C)CC(=O)N[C@@H](CCc2cc(F)c(C(F)F)c(F)c2)C(=O)N2C[C@H](OCC)C[C@H]2C(=O)NC2(CC(C)(C)C2)C(=O)N(C)[C@@H](C(CC)CC)C(=O)N(C)[C@H](C(=O)N(C)C)CC(=O)N1C [PP2781]	64.1	–	–	A (a compound having 10 or more and less than 20 is denoted as A)	AA (a compound having 20 or more is denoted as AA)	–	–
CCO[C@@H]1C[C@H]2C(=O)NC3(CC(F)(F)C3)C(=O)N(C)[C@@H](C(CC)CC)C(=O)N(C)[C@H](CC)CC(=O)N(C)[C@@H](CC)C(=O)N[C@@H]([C@@H](C)CC)C(=O)N(C)CC(=O)N(C)[C@H]3C/C=C\CCN(C3=O)[C@@H](Cc3ccc(C(F)(F)F)cc3)C(=O)N(C)CC(=O)N[C@@H](CCc3cc(F)c(C(F)(F)F)c(F)c3)C(=O)N2C1 [PP1626]	108	–	–	–	–	A (a compound having 10 or more and less than 20 is denoted as A)	A (a compound having 10 or more and less than 20 is denoted as A)
CCC[C@H]1C(=O)N[C@@H]([C@@H](C)CC)C(=O)N(C2CC2)CC(=O)N(C)[C@H]2C/C=C\CCN(C2=O)[C@@H](Cc2ccc(C(F)(F)F)cc2)C(=O)N(C)CC(=O)N[C@@H](CCc2ccc(C(F)(F)F)c(OC)c2)C(=O)N2C[C@H](OCC)C[C@H]2C(=O)N(C)C2(CCC2)C(=O)N(C)[C@@H](C2CCCC2)C(=O)N(C)[C@H](C(=O)N2CCCC2)CC(=O)N1C [PP3097]	5.4	–	–	A (a compound having 10 or more and less than 20 is denoted as A)	A (a compound having 10 or more and less than 20 is denoted as A)	–	–
CCCN1C(=O)C[C@@H](C(=O)N(C)C)N(C)C(=O)[C@H](C2CCCC2)N(C)C(=O)C2(CCC2)NC(=O)[C@@H]2C[C@@H](OCC)CN2C(=O)[C@H](CCc2cc(F)c(C(F)(F)F)c(F)c2)NC(=O)CN(C)C(=O)[C@H](Cc2ccc(C(F)(F)F)cc2)N2CC/C=C\C[C@@H](C2=O)N(C)C(=O)CNC(=O)[C@H]([C@@H](C)CC)NC(=O)[C@@H]1CC(C)C [PP1826]	17.6	–	–	–	–	A (a compound having 10 or more and less than 20 is denoted as A)	A (a compound having 10 or more and less than 20 is denoted as A)
CC[C@H](C)[C@@H]1NC(=O)[C@H](CC(C)C)N(CC)C(=O)C[C@@H](C(=O)N2CCOCC2)N(C)C(=O)[C@H](C2CCCC2)N(C)C(=O)C2(CCCC2)NC(=O)[C@@H]2CCCN2C(=O)[C@H](CCc2cc(F)c(C(F)(F)F)c(F)c2)NC(=O)CN(C)C(=O)[C@H](Cc2ccc(C(F)(F)F)cc2)N2CCCC[C@@H](C2=O)N(C)C(=O)CN(C)C1=O [PP0588]	16.7	B (a compound having 3 or more and less than 10 is denoted as B)	B (a compound having 3 or more and less than 10 is denoted as B)	–	–	–	–
CCCN(C)C(=O)[C@@H]1CC(=O)N(C)[C@@H](CCOC)C(=O)N[C@@H]([C@@H](C)CC)C(=O)N(C)CC(=O)N(C)[C@H]2C/C=C\CCN(C2=O)[C@@H](Cc2ccc(C(F)(F)F)cc2)C(=O)N(C)CC(=O)N[C@@H](CCc2ccc(C(F)(F)F)c(OC)c2)C(=O)N2C[C@@H](C)C[C@H]2C(=O)NC2(CC(C)(C)C2)C(=O)N(C)[C@@H](C2CCCC2)C(=O)N1C [PP2001]	18.1	A (a compound having 10 or more and less than 20 is denoted as A)	A (a compound having 10 or more and less than 20 is denoted as A)	–	–	–	–

The next lines start with results.

IC50 [1] [nM]	SMILES	HRAS /KRAS (HRAS wild-type protein; [3])	NRAS /KRAS [2, 4]	HRAS /KRAS (HRAS wild-type protein; [5])	NRAS /KRAS [2, 6]	HRAS /KRAS (HRAS wild-type protein; [7])	NRAS /KRAS [2, 8]
18.2	CCO[C@@H]1C[C@H]2C(=O)NC3(CC(C)(C)C3)C(=O)N(C)[C@@H](C(CC)CC)C(=O)N(C)[C@H](C(=O)N3CCCC3)CC(=O)N(C)[C@@H](C)C(=O)N[C@@H]([C@@H](C)CC)C(=O)N(C)CC(=O)N(C)[C@H]3C/C=C\CCN(C3=O)[C@@H](Cc3ccc(C(F)(F)F)cc3)C(=O)N(C)CC(=O)N[C@@H](CCc3ccc(C(F)(F)F)c(OC)c3)C(=O)N2C1 [PP2163]	A (a compound having 10 or more and less than 20 is denoted as A)	A (a compound having 10 or more and less than 20 is denoted as A)	–	–	–	–
14.7	CCC[C@H]1C(=O)N[C@@H]([C@@H](C)CC)C(=O)N(C)[C@@H](C)C(=O)N2CC[C@H]2C(=O)N(CCC)[C@@H](Cc2ccc(C(F)(F)F)cc2)C(=O)N(C)CC(=O)N[C@@H](CCc2ccc(C(F)(F)F)c(Cl)c2)C(=O)N2CCC[C@H]2C(=O)NC2(CCC2)C(=O)N(C)[C@@H](C(CC)CC)C(=O)N(C)[C@H](C(=O)N2CCOCC2)CC(=O)N1C [PP1959] ([NMeNva]I[NMeA][Aze][NPrPhe(4-CF3)][Sar][hPhe(3-Cl-4-CF3)]P[Ac4c][NMeNva(3-Et)][NMeD]-Morpholide; lactam N-11)	B (a compound having 3 or more and less than 10 is denoted as B)	C (A compound having a KD ratio of 0.1 or more and less than 3 is denoted as C)	–	–	–	–
130	CCO[C@@H]1C[C@H]2C(=O)NC3(CCC3)C(=O)N(C)[C@@H](C(C)(C)C)C(=O)N(C)[C@H](C(=O)N3CCOCC3)CC(=O)N(C)[C@@H](CC(C)C)C(=O)N[C@@H]([C@@H](C)CC)C(=O)N(C)CC(=O)N(C)[C@H]3CCCCCN(C3=O)[C@@H](Cc3ccc(C(F)(F)F)cc3)C(=O)N(C)CC(=O)N[C@@H](CCc3cc(F)c(C(F)(F)F)c(F)c3)C(=O)N2C1 [PP0823]	–	–	B (a compound having 3 or more and less than 10 is denoted as B)	A (a compound having 10 or more and less than 20 is denoted as A)	–	–
10.3	CC[C@H](C)[C@@H]1NC(=O)[C@H](CC(C)C)N(C)C(=O)C[C@@H](C(=O)N2CCOCC2)N(C)C(=O)[C@H](C2CCCC2)N(C)C(=O)C2(CCCC2)NC(=O)[C@@H]2CCCN2C(=O)[C@H](CCc2ccc(C(F)(F)F)c(Cl)c2)NC(=O)CN(C)C(=O)[C@H](Cc2ccc(F)cc2)N(CC)C(=O)CN(C)C(=O)CN(C)C1=O [PP0213] ([NMeL]I[Sar][Sar][NEtPhe(4-F)][Sar][hPhe(3-Cl-4-CF3)]P[Ac5c][NMeGly(cPent)][NMeD]-Morpholide; lactam N-11)	–	–	C (A compound having a KD ratio of 0.1 or more and less than 3 is denoted as C)	C (A compound having a KD ratio of 0.1 or more and less than 3 is denoted as C)	–	–
6.1	C=CCN1C(=O)[C@@H]2CCN2C(=O)[C@H](C)N(C)C(=O)[C@H]([C@@H](C)CC)NC(=O)[C@H](CC(C)C)N(C)C(=O)C[C@@H](C(=O)N2CCOCC2)N(C)C(=O)[C@H](C2CCCC2)N(C)C(=O)C2(CCCC2)NC(=O)[C@@H]2CCCN2C(=O)[C@H](CCc2ccc(C(F)(F)F)c(Cl)c2)NC(=O)CN(C)C(=O)[C@@H]1Cc1ccc(C(F)(F)F)cc1 [PP0114] ([NMeL]I[NMeA][Aze][X12][Sar][hPhe(3-Cl-4-CF3)]P[Ac5c][NMeGly(cPent)][NMeD]-Morpholide; lactam N-11)	–	–	C (A compound having a KD ratio of 0.1 or more and less than 3 is denoted as C)	C (A compound having a KD ratio of 0.1 or more and less than 3 is denoted as C)	–	–
